Like-named read-outs stand apart in the source and are kept apart here. Values belong to the compound of their own block, whether it stands above or below them.
How the values were obtained:
Nrf2 = biological target: T1, Nrf2 (Homo sapiens, UniProt Q16236); assay: Nrf2 degradation in A549 HiBiT-Nrf2 cells, Nano-Glo HiBiT lytic detection (HiBiT readout); format: cell-based; set-up: host or cells: A549 HiBiT-Nrf2 cells (engineered line bought from Promega)
T1 sequence (Q16236 1-605): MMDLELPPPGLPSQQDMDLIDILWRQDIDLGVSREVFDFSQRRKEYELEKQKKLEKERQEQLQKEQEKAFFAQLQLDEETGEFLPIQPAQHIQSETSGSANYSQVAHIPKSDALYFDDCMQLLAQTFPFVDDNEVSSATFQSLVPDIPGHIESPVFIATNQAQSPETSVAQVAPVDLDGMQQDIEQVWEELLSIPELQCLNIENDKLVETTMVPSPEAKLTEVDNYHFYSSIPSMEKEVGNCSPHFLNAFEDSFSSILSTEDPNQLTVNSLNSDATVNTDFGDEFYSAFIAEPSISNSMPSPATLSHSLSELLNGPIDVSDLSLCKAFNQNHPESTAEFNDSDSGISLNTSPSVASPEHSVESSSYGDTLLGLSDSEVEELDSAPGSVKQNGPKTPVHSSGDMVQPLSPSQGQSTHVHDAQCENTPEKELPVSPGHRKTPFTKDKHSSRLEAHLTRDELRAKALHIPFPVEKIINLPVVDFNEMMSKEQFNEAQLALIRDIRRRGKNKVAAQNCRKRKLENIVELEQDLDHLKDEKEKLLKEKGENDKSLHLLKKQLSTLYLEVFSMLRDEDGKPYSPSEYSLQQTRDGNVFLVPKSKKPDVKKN
Procedure, shortened: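 A549 HiBiT-Nrf2 cells seeded at 5,000 cells/well in Ham's F-12 with 10% FBS, then treated next day for 6 h and 20 h at 37 °C, 5% CO2. Nrf2 degradation read by Nano-Glo HiBiT lytic luminescence after 30 min at room temperature; staurosporine served as control.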

[1] = tested on: various cancer cell lines; assay: Cancer cell testing, inhibitory activity in various cancer cell lines (CellTiter-Glo, 72 hours); format: cell-based
Procedure: The inhibitory activity of representative Compounds of the Disclosure was tested in various cancer cell lines according to the following protocol.
Cells were harvested from flasks into cell culture media and cell numbers were counted. Cells were then diluted with culture medium to the desired density, and 40 μL of cell suspension were added into each well of a 384-well cell culture plate (Corning, #3764). Plates were covered with lids and placed at room temperature for 30 minutes without shaking, and then transferred into a 37° C. 5% CO2 incubator.
Cpd. Nos. 30 and 34 were dissolved in DMSO to form a 10 mM stock solution. Paclitaxel as the control compound was dissolved in DMSO to form a 0.33 mM stock solution. 45 μL of stock solution was transferred to a 384 pp-plate and 3-fold, 10-point dilutions were performed by transferring 15 μL of compound into 30 μL of DMSO using a TECAN (EVO200) liquid handler. Plates were spun at room temperature at 1,000 RPM for 1 minute, and shaken at a plate shaker for 2 minutes. […] of diluted compound were transferred from compound source plate into the cell plate. After compound treatment for 72 hours, CTG detection was performed for compound treatment plates as described in the “Detection” section.
CellTiter Glo reagents were thawed and equilibrated to room temperature before the experiment. Plates were removed from incubators and equilibrated at room temperature for 15 minutes. 40 μL of CellTiter-Glo reagent was added to each well to be detected at 1:1 to culture medium. Then, plates were placed at room temperature for 30 min followed by reading on Ensight.
Inhibition activity was calculated following the formula below:
[formula] • HC: 0.3% DMSO, LC: 1 μM Paclitaxel
IC50S were calculated by fitting the Curve using Xlfit (v5.3.1.3) according to the following equation: […]

[2] = 6 h, read-out: DC50 (nM) at 6 h
[3] = 20 h, read-out: DC50 (nM) at 20 h
[4] = HCC15, HCC-15, LUNG, KEAP1 p.G364C
[5] = HEC59, UTERINE/ENDOMETRIAL, NRF2 p.N329D
[6] = HEC151, UTERINE/ENDOMETRIAL, KEAP1 p.A34S, NRF2 p.L23GfsTer5
[7] = HEC-251, HEC251, UTERINE/ENDOMETRIAL, KEAP1 p.Q227R, NRF2 p.K516T
[8] = HEC-265, UTERINE/ENDOMETRIAL, KEAP1 p.R483C
[9] = HO1U1, HEAD & NECK, NRF2 p.E82D
[10] = Homo sapiens, A549, A549, LUNG, KEAP1 p.G333C
[11] = Homo sapiens, COR-L88, CORL88, LUNG, NRF2 p.Q26P
[12] = Homo sapiens, EBC-1, EBC1, LUNG, NRF2 p.D77V
[13] = Homo sapiens, HCC44, HCC44, UTERINE/ENDOMETRIAL, KEAP1 p.F211C
[14] = Homo sapiens, HCC95, HCC-95, LUNG, no KEAP1/NRF2 mutation listed
[15] = Homo sapiens, HEC-1-A, HEC1A, UTERINE/ENDOMETRIAL, KEAP1 p.Y33C, NRF2 G31R
[16] = Homo sapiens, HEC-1B, HEC1B, UTERINE/ENDOMETRIAL, NRF2 p.G31R
[17] = Homo sapiens, KYSE-70, KYSE70, ESOPHAGEAL, NRF2 p.W24C
[18] = Homo sapiens, KYSE-180, KYSE180, ESOPHAGEAL, NRF2 p.P278Q
[19] = Homo sapiens, KYSE-520, KYSE520, ESOPHAGEAL, NRF2 p.T80I
[20] = Homo sapiens, MES-SA, MESSA, UTERINE/ENDOMETRIAL, NRF2 p.E79K
[21] = Homo sapiens, MRC5, MRC-5, NORMAL LUNG FIBROBLAST
[22] = Homo sapiens, NCI-H23, NCI-H23, LUNG, KEAP1 p.Q193H
[23] = Homo sapiens, NCI-H358, NCI-H358, LUNG, no KEAP1/NRF2 mutation listed
[24] = Homo sapiens, NCI-H460, NCI-H460, LUNG, KEAP1 p.D236H
[25] = Homo sapiens, NCI-H1792, NCI-H1792, LUNG, KEAP1 p.G462W
[26] = Homo sapiens, NCI-H1944, NCI-H1944, LUNG, KEAP1 p.R320L
[27] = Homo sapiens, NCI-H2030, NCI-H2030, LUNG, KEAP1 p.V568F
[28] = Homo sapiens, NCI-H2122, NCI-H2122, LUNG, KEAP1 p.A170_R204del
[29] = Homo sapiens, NCI-H2126, NCI-H2126, LUNG, KEAP1 p.R320L
[30] = Homo sapiens, NCI-H2228, NCI-H2228, LUNG, NRF2 p.G31A
[31] = Homo sapiens, RL95-2, RL95-2, UTERINE/ENDOMETRIAL, KEAP1 p.R116W
[32] = Homo sapiens, SHP77, SHP-77, LUNG, KEAP1 p.D294Y
[33] = Homo sapiens, UMC-11, UMC11, LUNG, KEAP1 p.G571A
[34] = JHOC-5, UTERINE/ENDOMETRIAL, KEAP1 p.R483H
[35] = MORCPR, LUNG, KEAP1 p.K551SfsTer44
[36] = NCI-H322, NCI-H322, LUNG, KEAP1 p.R460S
[37] = NCI-H1435, NCI-H1435, LUNG, KEAP1 p.R413L
[38] = NCI-H1688, NCI-H1688, LUNG, KEAP1 p.G511S
[39] = NCI-H2066, NCI-H2066, LUNG, KEAP1 p.P361L
[40] = NCI-H2110, NCI-H2110, LUNG, KEAP1 p.G429C
[41] = NCI-H2172, NCI-H2172, LUNG, KEAP1 p.G430C
[42] = OE21, OE21, ESOPHAGEAL, NRF2 p.D318H
[43] = RERF-LC-Sq1, RERFLCSQ1, LUNG, NRF2 p.D29H
[44] = RMUG-S, UTERINE/ENDOMETRIAL, KEAP1 p.G603V
[45] = SW579, SW579, HEAD & NECK, NRF2 p.D77Y

- DC50 (Nrf2; [2]): < 300 nM
- DC50 (Nrf2; [3]): > 3000 nM
- IC50 [1, 4]: 4.1 nM
- IC50 [1, 5]: 2.8 nM
- IC50 [1, 6]: 4.8 nM
- IC50 [1, 7]: < 1.5 nM
- IC50 [1, 8]: 8.7 nM
- IC50 [1, 9]: 12.8 nM
- IC50 [1, 10]: 4.3 nM
- IC50 [1, 11]: < 1.5 nM
- IC50 [1, 12]: 11.3 nM
- IC50 [1, 13]: 397 nM
- IC50 [1, 14]: 302 nM
- IC50 [1, 15]: 2.9 nM
- IC50 [1, 16]: 31.9 nM
- IC50 [1, 17]: 8.8 nM
- IC50 [1, 18]: 4 nM
- IC50 [1, 19]: 1.7 nM
- IC50 [1, 20]: 4.7 nM
- IC50 [1, 22]: 126 nM
- IC50 [1, 23]: 11.6 nM
- IC50 [1, 24]: 15500 nM
- IC50 [1, 25]: 6.5 nM
- IC50 [1, 26]: 25.2 nM
- IC50 [1, 27]: 169 nM
- IC50 [1, 28]: 54.9 nM
- IC50 [1, 29]: 98.9 nM
- IC50 [1, 30]: 12.6 nM
- IC50 [1, 31]: 2.8 nM
- IC50 [1, 32]: 29.6 nM
- IC50 [1, 33]: 5.8 nM
- IC50 [1, 34]: 11.5 nM
- IC50 ([1]; LK-2, LUNG, NRF2 p.E79K): < 1.5 nM
- IC50 [1, 35]: 3.4 nM
- IC50 [1, 36]: 3.9 nM
- IC50 ([1]; NCI-H920, LUNG, KEAP1 p.G603V): 191 nM
- IC50 [1, 37]: 38 nM
- IC50 [1, 38]: < 2 nM
- IC50 [1, 39]: 4.4 nM
- IC50 [1, 40]: 5.1 nM
- IC50 [1, 41]: 5.9 nM
- IC50 [1, 42]: 156 nM
- IC50 [1, 43]: 12.6 nM
- IC50 [1, 44]: 21.5 nM
- IC50 ([1]; SNU2535, LUNG, NRF2 p.D29H): 8.9 nM
- IC50 [1, 45]: 6.7 nM
Compound: Cc1sc(NC(=O)Cc2ccc(F)c(OCCOCCNc3ccc4c(c3)CN(C3CCC(=O)NC3=O)C4=O)c2)nc1-c1ccc2c(c1)CCN2C(=O)c1cncn1C (stereo not shown) [Cpd. No. 30, 2-(3-(2-(2-((2-(2,6-dioxopiperidin-3-yl)-1-oxoisoindolin-5-yl)amino)ethoxy)ethoxy)-4-fluorophenyl)-N-(5-methyl-4-(1-(1-methyl-1H-imidazole-5-carbonyl)indolin-5-yl)thiazol-2-yl)acetamide]
- IC50 [1, 21]: 12.5 nM

- DC50 (Nrf2; [2]): < 300 nM
- DC50 (Nrf2; [3]): < 300 nM
- IC50 [1, 4]: 30.1 nM
- IC50 [1, 5]: 20.4 nM
- IC50 [1, 6]: 86.7 nM
- IC50 [1, 7]: 10.6 nM
- IC50 [1, 8]: 66.7 nM
- IC50 [1, 9]: 54.8 nM
- IC50 [1, 10]: 20.6 nM
- IC50 [1, 11]: 4.4 nM
- IC50 [1, 12]: 152 nM
- IC50 [1, 13]: > 30000 nM
- IC50 [1, 14]: > 30000 nM
- IC50 [1, 15]: 20.3 nM
- IC50 [1, 16]: > 30000 nM
- IC50 [1, 17]: 33.6 nM
- IC50 [1, 18]: 45.8 nM
- IC50 [1, 19]: 13.2 nM
- IC50 [1, 20]: 35.1 nM
- IC50 [1, 22]: > 30000 nM
- IC50 [1, 23]: 44.9 nM
- IC50 [1, 24]: > 30000 nM
- IC50 [1, 25]: 41.7 nM
- IC50 [1, 26]: 107 nM
- IC50 [1, 27]: 224 nM
- IC50 [1, 28]: > 30000 nM
- IC50 [1, 29]: > 30000 nM
- IC50 [1, 30]: 57.4 nM
- IC50 [1, 31]: 20.9 nM
- IC50 [1, 32]: 22.5 nM
- IC50 [1, 33]: 12.2 nM
- IC50 [1, 34]: 54.2 nM
- IC50 ([1]; LK-2, LUNG, NRF2 p.E79K): 9.4 nM
- IC50 [1, 35]: 33.2 nM
- IC50 [1, 36]: 23.9 nM
- IC50 ([1]; NCI-H920, LUNG, KEAP1 p.G603V): > 30000 nM
- IC50 [1, 37]: 150 nM
- IC50 [1, 38]: 13 nM
- IC50 [1, 39]: 15.9 nM
- IC50 [1, 40]: 42.1 nM
- IC50 [1, 41]: 14.2 nM
- IC50 [1, 42]: > 30000 nM
- IC50 [1, 43]: 85.6 nM
- IC50 [1, 44]: 18.1 nM
- IC50 ([1]; SNU2535, LUNG, NRF2 p.D29H): > 30000 nM
- IC50 [1, 45]: 73.1 nM
Compound: Cc1sc(NC(=O)Cc2cccc(OCCOCCNc3cccc4c3C(=O)N(C3CCC(=O)NC3=O)C4=O)c2)nc1-c1ccc2c(c1)CCN2C(=O)C1CC1 (stereo not shown) [Cpd. No. 34, N-(4-(1-(cyclopropanecarbonyl)indolin-5-yl)-5-methylthiazol-2-yl)-2-(3-(2-(2-((2-(2,6-dioxopiperidin-3-yl)-1,3-dioxoisoindolin-4-yl)amino)ethoxy)ethoxy)phenyl) acetamide]
- IC50 [1, 21]: 35.4 nM

From patent publication US20260055097A9, “NRF2 PROTEIN DEGRADERS” (Ganymede Oncology, Inc., priority 2022, published 2026)
